Measurements as given in ChEMBL document CHEMBL1201862, “PubChem BioAssay data set” (2004).
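Briefly, cells in 96-well plates were exposed to five compound concentrations for 48 h, and endpoints were estimated by linear interpolation. Here, GI50 denotes the concentration required for 50% inhibition of growth.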 Calls of active or inactive are those of the source. Rule as the data show it: active = GI50 up to about 1.1 µM and inactive = higher. Starred links: 1 amine or outer side, 2 acyl side, 3 side chain; linkers in the order of their positions; H or OH if unused. Non-standard residues stand in square brackets, D forms with d. Residues, ends and D or L forms follow the SMILES beside them. X35 = C=CCC(O[*:1])C(=O)[*:2]; NMeV = CN[CH](C(=O)O)C(C)C; NMeA = CN[CH](C)C(=O)O; βAla = NCCC(=O)O

Key:
Experiment in all cases: growth of human tumour cells (NCI), 48 h
[1] = tested on: NCI-H460
[2] = tested on: NCI-H226
[3] = tested on: SW-620
[4] = tested on: RXF 393
[5] = tested on: UACC-257
[6] = tested on: HCT-116
[7] = tested on: HL-60
[8] = tested on: COLO 205
[9] = tested on: TK-10
[10] = tested on: SK-OV-3
[11] = tested on: RPMI-8226
[12] = tested on: OVCAR-8
[13] = tested on: IGROV-1
[14] = tested on: SN12C
[15] = tested on: CCRF-CEM
[16] = tested on: UACC-62
[17] = tested on: Malme-3M
[18] = tested on: 786-0
[19] = tested on: SR
[20] = tested on: T47D

Row | Structure (SMILES) | GI50 [1] | GI50 [2] | GI50 [3] | GI50 [4] | GI50 [5] | GI50 [6] | GI50 [7] | GI50 [8] | GI50 [9] | GI50 [10] | GI50 [11] | GI50 [12] | GI50 [13] | GI50 [14] | GI50 [15] | GI50 [16] | GI50 [17] | GI50 [18] | GI50 [19] | GI50 [20]
1 | O=C(/C=C/c1ccc(Cl)c(Cl)c1)c1ccc2ccccc2c1 | 37.7 µM (inactive) | 70.5 µM (inactive) | > 100 µM (inactive) | > 100 µM (inactive) | > 100 µM (inactive) | > 100 µM (inactive) | 32.7 µM (inactive) | 13.6 µM (inactive) | > 100 µM (inactive) | > 100 µM (inactive) | > 100 µM (inactive) | > 100 µM (inactive) | > 100 µM (inactive) | 19.7 µM (inactive) | > 100 µM (inactive) | > 100 µM (inactive) | > 100 µM (inactive) | > 100 µM (inactive) | 47.9 µM (inactive) | –
2 | CC1(C)CC(=O)C(=CNc2nc(-c3ccc(Br)cc3)cs2)C(=O)C1 | 31.1 µM (inactive) | 45.3 µM (inactive) | 42.9 µM (inactive) | – | 18.5 µM (inactive) | 26.5 µM (inactive) | 27.7 µM (inactive) | 31.2 µM (inactive) | 11.5 µM (inactive) | 83 µM (inactive) | – | 51.1 µM (inactive) | 29.6 µM (inactive) | 39.7 µM (inactive) | – | – | – | 25.5 µM (inactive) | – | 32.9 µM (inactive)
3 | CCCNC(=S)N/C=C1\C(=O)Nc2ccccc2C1=O | > 100 µM (inactive) | > 100 µM (inactive) | > 100 µM (inactive) | > 100 µM (inactive) | > 100 µM (inactive) | > 100 µM (inactive) | > 100 µM (inactive) | > 100 µM (inactive) | > 100 µM (inactive) | > 100 µM (inactive) | > 100 µM (inactive) | > 100 µM (inactive) | > 100 µM (inactive) | > 100 µM (inactive) | > 100 µM (inactive) | > 100 µM (inactive) | – | > 100 µM (inactive) | – | > 100 µM (inactive)
4 | Cc1ccc2c(=O)c(-c3nnc(NC4CCCCC4)s3)c[nH]c2n1 | > 100 µM (inactive) | > 100 µM (inactive) | > 100 µM (inactive) | > 100 µM (inactive) | > 100 µM (inactive) | > 100 µM (inactive) | > 100 µM (inactive) | > 100 µM (inactive) | > 100 µM (inactive) | – | > 100 µM (inactive) | > 100 µM (inactive) | > 100 µM (inactive) | > 100 µM (inactive) | > 100 µM (inactive) | > 100 µM (inactive) | > 100 µM (inactive) | > 100 µM (inactive) | – | 50 µM (inactive)
5 | CC(=O)N1N(c2ccc([N+](=O)[O-])cc2)C(=O)C1(C)C | 29.4 µM (inactive) | 21.1 µM (inactive) | 13.4 µM (inactive) | 18 µM (inactive) | – | – | – | 15.5 µM (inactive) | 17.1 µM (inactive) | 48 µM (inactive) | – | 23.2 µM (inactive) | 20.6 µM (inactive) | 16.5 µM (inactive) | 7.08 µM (inactive) | 18.5 µM (inactive) | 19.6 µM (inactive) | 18.1 µM (inactive) | – | 39.3 µM (inactive)
6 | O=c1[nH]nc(Cc2ccc([N+](=O)[O-])cc2)n1CCO | > 100 µM (inactive) | > 100 µM (inactive) | > 100 µM (inactive) | – | > 100 µM (inactive) | > 100 µM (inactive) | > 100 µM (inactive) | > 100 µM (inactive) | > 100 µM (inactive) | > 100 µM (inactive) | > 100 µM (inactive) | > 100 µM (inactive) | > 100 µM (inactive) | > 100 µM (inactive) | – | > 100 µM (inactive) | > 100 µM (inactive) | > 100 µM (inactive) | – | > 100 µM (inactive)
7 | Cc1cc(C)c(-n2c(-c3ccccc3)cs/c2=N\N=C2C=C(C(C)(C)C)C(=O)C(C(C)(C)C)=C2)c(C)c1 | > 100 µM (inactive) | > 100 µM (inactive) | > 100 µM (inactive) | > 100 µM (inactive) | > 100 µM (inactive) | 64.6 µM (inactive) | 50.5 µM (inactive) | > 100 µM (inactive) | > 100 µM (inactive) | > 100 µM (inactive) | > 100 µM (inactive) | > 100 µM (inactive) | > 100 µM (inactive) | > 100 µM (inactive) | > 100 µM (inactive) | 60.3 µM (inactive) | > 100 µM (inactive) | > 100 µM (inactive) | > 100 µM (inactive) | –
8 | CCOP(=O)(OCC)/C(=C/NC(=S)c1ccncc1)C(=O)OC | > 100 µM (inactive) | > 100 µM (inactive) | > 100 µM (inactive) | > 100 µM (inactive) | > 100 µM (inactive) | > 100 µM (inactive) | 53.5 µM (inactive) | > 100 µM (inactive) | > 100 µM (inactive) | > 100 µM (inactive) | > 100 µM (inactive) | > 100 µM (inactive) | > 100 µM (inactive) | > 100 µM (inactive) | 20.6 µM (inactive) | > 100 µM (inactive) | – | > 100 µM (inactive) | 4.48 µM (inactive) | > 100 µM (inactive)
9 | COc1cc(C2C(Cl)C(=O)N2c2ccc(Br)cc2)cc(I)c1O (stereo unspecified) | 58.3 µM (inactive) | – | > 100 µM (inactive) | – | 57 µM (inactive) | 40.3 µM (inactive) | 34 µM (inactive) | > 100 µM (inactive) | 90.8 µM (inactive) | 92.9 µM (inactive) | 33.1 µM (inactive) | > 100 µM (inactive) | 1.54 µM (inactive) | 68.5 µM (inactive) | 26.4 µM (inactive) | 25.5 µM (inactive) | – | > 100 µM (inactive) | 29.2 µM (inactive) | 23.8 µM (inactive)
10 | CCOC(=O)/C=C/CC(C)(C)CCOC(C)=O | > 10 µM (inactive) | > 10 µM (inactive) | > 10 µM (inactive) | > 10 µM (inactive) | > 10 µM (inactive) | > 10 µM (inactive) | > 10 µM (inactive) | > 10 µM (inactive) | > 10 µM (inactive) | > 10 µM (inactive) | > 10 µM (inactive) | > 10 µM (inactive) | > 10 µM (inactive) | > 10 µM (inactive) | > 10 µM (inactive) | > 10 µM (inactive) | – | > 10 µM (inactive) | > 10 µM (inactive) | > 10 µM (inactive)
11 | COc1ccc(C=C2C(=O)NC(=S)NC2=O)c2ccccc12 | 12 µM (inactive) | 0.179 µM (active) | 33.4 µM (inactive) | 20.7 µM (inactive) | 14.4 µM (inactive) | 40 µM (inactive) | 24.3 µM (inactive) | – | 7.6 µM (inactive) | 37.1 µM (inactive) | 34.5 µM (inactive) | 33.4 µM (inactive) | 38.3 µM (inactive) | – | 32.4 µM (inactive) | – | – | 47 µM (inactive) | 42.7 µM (inactive) | 32.1 µM (inactive)
12 | COc1ccc2c(c1)N=C1CSC(c3c(Cl)cccc3[N+](=O)[O-])N1C2 (stereo unspecified) | 20 µM (inactive) | 0.918 µM (active) | 36.6 µM (inactive) | 29.5 µM (inactive) | 27 µM (inactive) | 35.5 µM (inactive) | 31 µM (inactive) | 24.9 µM (inactive) | 48.4 µM (inactive) | > 100 µM (inactive) | 30 µM (inactive) | 46.9 µM (inactive) | 62.8 µM (inactive) | 53.7 µM (inactive) | – | 22.4 µM (inactive) | 44.3 µM (inactive) | 51.5 µM (inactive) | – | 49 µM (inactive)
13 | COc1ccc(O)c(/C=N\Nc2ccccc2)c1 | 4.79 µM (inactive) | 20.6 µM (inactive) | 5.41 µM (inactive) | 84.3 µM (inactive) | 16.7 µM (inactive) | 22.6 µM (inactive) | 3.17 µM (inactive) | 10.6 µM (inactive) | – | > 100 µM (inactive) | 0.021 µM (active) | 22.1 µM (inactive) | – | 29.6 µM (inactive) | – | 2.6 µM (inactive) | – | 32.3 µM (inactive) | – | 0.402 µM (active)
14 | N#CC(C/C=C/c1ccccc1)NNC(=O)c1c(Cl)c(Cl)c(Cl)c(Cl)c1-c1nc2cc(C(=O)c3ccccc3)ccc2[nH]1 (stereo unspecified) | – | 17.7 µM (inactive) | 22.8 µM (inactive) | 9.53 µM (inactive) | 25.5 µM (inactive) | 20 µM (inactive) | 7.57 µM (inactive) | 15 µM (inactive) | 22.8 µM (inactive) | 16.9 µM (inactive) | 16.3 µM (inactive) | 16.7 µM (inactive) | 18.2 µM (inactive) | 14.8 µM (inactive) | 5.79 µM (inactive) | – | – | 16.4 µM (inactive) | 6.58 µM (inactive) | 12 µM (inactive)
15 | CC(C)[C@H]1C(=O)O[B@-](F)(c2ccccc2)/[N+]1=C\N(C)C | > 100 µM (inactive) | > 100 µM (inactive) | > 100 µM (inactive) | – | > 100 µM (inactive) | > 100 µM (inactive) | > 100 µM (inactive) | > 100 µM (inactive) | > 100 µM (inactive) | > 100 µM (inactive) | > 100 µM (inactive) | > 100 µM (inactive) | > 100 µM (inactive) | > 100 µM (inactive) | > 100 µM (inactive) | > 100 µM (inactive) | > 100 µM (inactive) | > 100 µM (inactive) | > 100 µM (inactive) | > 100 µM (inactive)
16 | C=CCC1OC(=O)CCNC(=O)C(C)N(C)C(=O)C(C(C)C)N(C)C(=O)C(C(C)CC)NC(=O)C2CCCN2C1=O (stereo unspecified) (cyclo([X35]PI[NMeV][NMeA][βAla]); configuration not given here) | 3.66 µM (inactive) | – | 6.64 µM (inactive) | – | 9.44 µM (inactive) | 3.68 µM (inactive) | 2.56 µM (inactive) | > 100 µM (inactive) | > 100 µM (inactive) | – | 2.62 µM (inactive) | 7.89 µM (inactive) | 7.06 µM (inactive) | > 100 µM (inactive) | 3.1 µM (inactive) | 2.68 µM (inactive) | – | 4.61 µM (inactive) | 2.58 µM (inactive) | 20.8 µM (inactive)
